Reference: patent US8389739B1, “Modulators of retinoid-related orphan receptor gamma” (Orphagen Pharmaceuticals, priority 2006, dated 2013)
Where two headings read alike, the source gives them in different places.

Experiments:
Assay in all cases: Crossreactive receptor transcriptional assay (Gal4 hybrid)
Type in all cases: cell-based
[1] = biological target: T1, hPR (progesterone receptor) (Homo sapiens, UniProt P06401)
T1 construct: 687-933; expressed in transfected cells; host or cells: CHO cells, transient transfection
T1 sequence (P06401 687-933): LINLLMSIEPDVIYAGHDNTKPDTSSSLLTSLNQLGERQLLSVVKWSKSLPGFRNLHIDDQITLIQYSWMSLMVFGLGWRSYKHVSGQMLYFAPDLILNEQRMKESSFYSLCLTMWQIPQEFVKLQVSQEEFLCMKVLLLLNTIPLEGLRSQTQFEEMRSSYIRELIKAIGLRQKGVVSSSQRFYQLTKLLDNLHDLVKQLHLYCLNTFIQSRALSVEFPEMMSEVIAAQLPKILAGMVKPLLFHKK

hAR (androgen receptor) = biological target: T2, hAR (androgen receptor) (Homo sapiens, UniProt P10275)
T2 construct: 646-919; expressed in transfected cells; host or cells: CHO cells, transient transfection
T2 sequence (P10275 647-920): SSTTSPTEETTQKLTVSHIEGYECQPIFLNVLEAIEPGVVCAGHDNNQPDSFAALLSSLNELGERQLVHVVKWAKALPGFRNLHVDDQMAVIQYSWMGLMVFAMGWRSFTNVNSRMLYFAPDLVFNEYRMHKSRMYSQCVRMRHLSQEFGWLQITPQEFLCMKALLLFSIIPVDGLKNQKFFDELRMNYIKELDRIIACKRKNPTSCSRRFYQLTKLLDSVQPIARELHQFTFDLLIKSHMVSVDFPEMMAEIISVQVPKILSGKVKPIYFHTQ

hPPARδ = biological target: T3, hPPARδ (Homo sapiens, UniProt Q03181)
T3 construct: 138-441; expressed in transfected cells; host or cells: CHO cells, transient transfection
T3 sequence (Q03181 138-441): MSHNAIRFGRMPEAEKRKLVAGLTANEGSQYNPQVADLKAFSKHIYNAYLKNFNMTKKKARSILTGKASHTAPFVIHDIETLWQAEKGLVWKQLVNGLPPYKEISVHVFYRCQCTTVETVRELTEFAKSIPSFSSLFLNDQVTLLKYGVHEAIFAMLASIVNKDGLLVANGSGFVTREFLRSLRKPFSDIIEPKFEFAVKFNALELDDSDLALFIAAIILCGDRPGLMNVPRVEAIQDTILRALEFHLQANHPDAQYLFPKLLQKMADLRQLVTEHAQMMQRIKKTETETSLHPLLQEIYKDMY

[2] = biological target: T4, hERα (Estrogen receptor-alpha) (Homo sapiens, UniProt P03372)
T4 construct: 249-595; expressed in transfected cells; host or cells: CHO cells, transient transfection
T4 sequence (P03372 249-595): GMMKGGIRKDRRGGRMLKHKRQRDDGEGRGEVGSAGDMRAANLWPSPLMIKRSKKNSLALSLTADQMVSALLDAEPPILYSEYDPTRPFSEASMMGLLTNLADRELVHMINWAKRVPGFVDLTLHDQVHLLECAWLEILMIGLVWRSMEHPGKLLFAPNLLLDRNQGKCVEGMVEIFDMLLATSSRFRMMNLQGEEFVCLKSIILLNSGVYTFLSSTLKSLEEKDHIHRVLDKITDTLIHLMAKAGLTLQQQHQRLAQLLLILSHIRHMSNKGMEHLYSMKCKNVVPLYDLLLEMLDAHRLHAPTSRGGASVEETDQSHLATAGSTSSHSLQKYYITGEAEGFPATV

[3] = biological target: T5, mGR (glucocorticoid receptor) (Mus musculus, UniProt P06537)
T5 construct: 524-793; expressed in transfected cells; host or cells: CHO cells, transient transfection
T5 sequence (P06537 524-793 isoform P06537-2): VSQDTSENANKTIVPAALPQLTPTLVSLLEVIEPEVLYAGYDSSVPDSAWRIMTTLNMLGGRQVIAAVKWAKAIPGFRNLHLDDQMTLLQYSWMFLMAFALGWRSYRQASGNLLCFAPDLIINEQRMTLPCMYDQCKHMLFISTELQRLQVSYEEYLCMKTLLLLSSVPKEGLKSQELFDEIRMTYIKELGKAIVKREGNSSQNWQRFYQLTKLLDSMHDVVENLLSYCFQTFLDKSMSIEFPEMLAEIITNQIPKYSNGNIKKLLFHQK

[4] = Table 6, read-out: Potency (EC50) at hPR
[5] = Table 6, read-out: Potency (EC50) at hAR
[6] = Table 6, RORγ ligands: no significant activity at 20 μM, read-out: Potency (EC50) at hPPARδ
[7] = Table 6, read-out: Potency (EC50) at hERα
[8] = Table 6, read-out: Potency (EC50) at mGR

Measured: EC50

CC(=O)O[C@H]1CC[C@@]2(C)C(CC[C@]3(C)C2C(=O)C=C2C4[C@@H](C)[C@H](C)CC[C@]4(C(=O)O)CC[C@]23C)C1(C)C (stereo in doubt) [OR-13571, 10-Acetoxy-1,2,6a,6b,9,9,12a-heptamethyl-13-oxo-1,3,4,5,6,6a,6b,7,8,8a,9,10,11,12,12a,12b,13,14b-octadecahydro-2H-picene-4a-carboxylic acid]
> 10 µM: [1]; [4] | hAR (androgen receptor); [5] | hPPARδ; [6] | [2]; [7] | [3]; [8]

O=S(=O)(c1ccccc1)N(CC(F)(F)F)c1ccc(C(O)(C(F)(F)F)C(F)(F)F)cc1 [Compound T0901317, N-(2,2,2-Trifluoro-ethyl)-N-[4-(2,2,2-trifluoro-1-hydroxy-1-trifluoromethyl-ethyl)-phenyl]-benzenesulfonamide, reference compound]
> 10 µM: [1]; [4] | hAR (androgen receptor); [5] | hPPARδ; [6] | [2]; [7] | [3]; [8]

C[C@@H]1CC[C@@]2(OC1)O[C@H]1C[C@H]3[C@@H]4CC[C@H]5C[C@@H](O)CC[C@]5(C)[C@H]4C[C@@H](O)[C@]3(C)[C@H]1[C@@H]2C [OR-885, 5α,20α, 22α, 25D-SPIROSTAN-3β, 12β-DIOL]
> 10 µM: [1] | hAR (androgen receptor) | hPPARδ | [2] | [3]

CCN(c1ccc(C(O)(C(F)(F)F)C(F)(F)F)cc1)S(=O)(=O)c1ccc([N+](=O)[O-])cc1 [OR-1050, N-Ethyl-4-nitro-N-[4-(2,2,2-trifluoro-1-hydroxy-1-trifluoromethyl-ethyl)-phenyl]-benzenesulfonamide]
> 10 µM: [1]; [4] | hAR (androgen receptor); [5] | hPPARδ; [6] | [2]; [7] | [3]; [8]

COc1c(C=NNc2nc(N3CCCCC3)nc(N3CCCCC3)n2)cccc1[N+](=O)[O-] [OR-2161, N-(4,6-Di-piperidin-1-yl-[1,3,5]triazin-2-yl)-N′-(2-methoxy-3-nitro-benzylidene)-hydrazine]
> 10 µM: [1]; [4] | hAR (androgen receptor); [5] | hPPARδ; [6] | [2]; [7] | [3]; [8]

COC(C)CCC(C)C1CCC2C3CC(O)C4CC(O)CCC4(C)C3CCC12C (centres unmarked) [OR-12872, 17-(4-Methoxy-1-methyl-pentyl)-10,13-dimethyl-hexadecahydro-cyclopenta[a]phenanthrene-3,6-diol]
> 10 µM: [1]; [4] | hAR (androgen receptor); [5] | hPPARδ; [6] | [2]; [7] | [3]; [8]

CCn1c(CNc2ccc(Cl)cc2)nnc1SCC(=O)Nc1cccc2ccccc12 [OR-133008, 2-{5-[(4-Chloro-phenylamino)-methyl]-4-ethyl-4H-[1,2,4]triazol-3-ylsulfanyl}-N-naphthalen-1-yl-acetamide]
> 10 µM: [1]; [4] | hAR (androgen receptor); [5] | hPPARδ; [6] | [2]; [7] | [3]; [8]
